Data on seven compounds can be found in ChEMBL document CHEMBL1137522, “Two new phenylpiperazines with atypical antipsychotic potential” (Bioorg Med Chem Lett, 2007).

What is called Ki is the dissociation constant of the complex between target and ligand, obtained from inhibition or displacement.

Data set [1] can be described thus: Binding affinity at adrenergic alpha 1 receptor in rat striatal membranes. The format is cell membranes, Striatum, Membrane.
In data set [2] the target is 5-hydroxytryptamine receptor 2A (Rattus norvegicus, UniProt P14842). Briefly: Binding affinity at 5HT2A receptor in rat striatal membranes. The class given is cell membranes, Striatum, Membrane.
Data set [3] has as its target T1, 5-hydroxytryptamine receptor 1A (Rattus norvegicus, UniProt P19327).
T1 sequence (P19327 whole entry): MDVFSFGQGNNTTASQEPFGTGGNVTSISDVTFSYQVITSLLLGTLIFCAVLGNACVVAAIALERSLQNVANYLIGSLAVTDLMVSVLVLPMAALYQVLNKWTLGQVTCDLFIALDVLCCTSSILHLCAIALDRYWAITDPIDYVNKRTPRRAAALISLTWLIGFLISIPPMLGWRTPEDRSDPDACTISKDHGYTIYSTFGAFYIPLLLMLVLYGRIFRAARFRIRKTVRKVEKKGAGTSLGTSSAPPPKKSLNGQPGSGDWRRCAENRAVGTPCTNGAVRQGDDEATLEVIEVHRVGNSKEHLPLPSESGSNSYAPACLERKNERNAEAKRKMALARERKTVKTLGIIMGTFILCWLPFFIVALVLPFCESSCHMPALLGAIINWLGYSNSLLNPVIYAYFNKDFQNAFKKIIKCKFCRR
Description: Binding affinity at 5HT1A receptor in rat striatal membranes. The class given is cell membranes, Striatum, Membrane.

For another data set, the target named is D(2) dopamine receptor (Rattus norvegicus, UniProt P61169). Briefly: Binding affinity at dopamine D2 receptor in rat striatal membranes. The class given is cell membranes, Striatum, Membrane.
The subject of the next data set is Rattus norvegicus. Briefly: Induction of catalepsy in Mill Hill hooded rat at 10 mg/kg after 30-180 min. The class given is organism-based. More on the design: dose 10 mg/kg. Particulars: in vivo.
The species entered for the next data set is Mus musculus. Briefly: Antagonist effect on amphetamine-induced hyperlocomotion in CPU mouse by open field test. The format is functional, organism-based.

Molecules are shown by their SMILES. The source made the active and inactive calls. No cut-off for these calls is given here.

Chain of D(2) dopamine receptor (P61169 whole entry): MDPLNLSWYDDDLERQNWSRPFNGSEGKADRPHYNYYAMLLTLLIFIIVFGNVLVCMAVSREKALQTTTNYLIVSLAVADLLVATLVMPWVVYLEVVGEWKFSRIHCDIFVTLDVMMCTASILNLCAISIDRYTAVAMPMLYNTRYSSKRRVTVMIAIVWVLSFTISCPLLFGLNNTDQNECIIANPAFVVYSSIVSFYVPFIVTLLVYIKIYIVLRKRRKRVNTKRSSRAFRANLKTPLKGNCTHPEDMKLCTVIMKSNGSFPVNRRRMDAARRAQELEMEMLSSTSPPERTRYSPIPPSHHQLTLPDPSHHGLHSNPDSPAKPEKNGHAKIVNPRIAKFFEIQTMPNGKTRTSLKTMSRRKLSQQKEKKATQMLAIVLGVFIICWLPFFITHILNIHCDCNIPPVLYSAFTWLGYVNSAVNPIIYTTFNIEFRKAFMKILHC
Chain of 5-hydroxytryptamine receptor 2A (P14842 whole entry): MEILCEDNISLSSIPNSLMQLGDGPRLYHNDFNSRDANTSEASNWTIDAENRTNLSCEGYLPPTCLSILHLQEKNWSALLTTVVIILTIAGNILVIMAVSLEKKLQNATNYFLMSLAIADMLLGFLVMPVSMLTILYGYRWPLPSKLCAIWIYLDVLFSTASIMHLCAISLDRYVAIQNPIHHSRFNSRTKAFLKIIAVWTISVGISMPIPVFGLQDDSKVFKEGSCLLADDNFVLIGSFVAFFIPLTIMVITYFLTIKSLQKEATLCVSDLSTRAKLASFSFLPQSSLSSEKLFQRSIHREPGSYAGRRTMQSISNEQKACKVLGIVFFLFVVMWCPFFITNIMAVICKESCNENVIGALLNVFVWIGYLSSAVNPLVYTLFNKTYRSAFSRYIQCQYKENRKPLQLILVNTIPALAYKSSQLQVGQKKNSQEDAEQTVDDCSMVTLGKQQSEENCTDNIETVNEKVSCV

For the compound `CN1CCN(C2=Nc3cc(Cl)ccc3Nc3ccccc32)CC1` [CLOZAPINE], the “Log Ki” value in data set [1] was -7.65.
`COc1ccccc1N1CCN(CCCOc2ccc3[nH]c(=S)[nH]c3c2)CC1`: the inhibition constant (Ki) is 19.1 nM in data set [2], 178 nM in data set [3] and 1.7 nM at D(2) dopamine receptor. Moreover, the “Log Ki” value in data set [1] was -8.71.
For `FC(F)(F)c1cccc(N2CCN(CCCOc3ccc4[nH]cnc4c3)CC2)c1`, in that order: 102 nM, 389 nM, 15.1 nM and -6.92.
In the same order, the values of `FC(F)(F)c1cccc(N2CCN(CCCOc3ccc4[nH]c(=S)[nH]c4c3)CC2)c1` are 316 nM, 100 nM, 363 nM and -6.31.
For the compound `c1ccc(N2CCN(CCCOc3ccc4[nH]cnc4c3)CC2)cc1`, the Ki in data set [2] was 13.8 nM; in data set [3], 646 nM; at D(2) dopamine receptor, 75.9 nM. Further, in the data set with Rattus norvegicus, the Activity entry is recorded as “Not Active”. In the data set filed under Mus musculus, the outcome was Active. Besides, the “Log Ki” value in data set [1] is -7.58.
`S=c1[nH]c2ccc(OCCCN3CCN(c4ccccc4)CC3)cc2[nH]1`: the Ki in data set [2] was 2.04 nM; in data set [3], 933 nM; on D(2) dopamine receptor, 41.7 nM. The Activity result with Rattus norvegicus is listed as “Not Active”. The result in the data set filed under Mus musculus was Active. Further, in data set [1], the “Log Ki” value is reported as -7.53.
Take `COc1ccccc1N1CCN(CCCOc2ccc3[nH]cnc3c2)CC1`: the Ki is 79.4 nM in data set [2], 15.1 nM in data set [3] and 8.71 nM on D(2) dopamine receptor. Also, the “Log Ki” value in data set [1] is -8.23.
